Measurements taken from patent US9237747B2, “Herbicidal compositions comprising 4-amino-3-chloro-5-fluoro-6-(4-chloro-2-fluoro-3-methoxyphenyl) pyridine-2-carboxylic acid or a derivative thereof and insecticides” (priority 2013, dated 2016).
Read-outs that look alike come from different tables or passages of the source.

Key:
SCPMA = assay: In-water applied weed control, transplanted paddy rice (greenhouse); type: in vivo, Schoenoplectus maritimus
Experimental: Weed seeds or nutlets of the desired test plant species were planted in puddled soil (mud) prepared by mixing a shredded, non-sterilized mineral soil (50.5 percent silt, 25.5 percent clay, and 24 percent sand, with a pH of about 7.6 and an organic matter content of about 2.9 percent) and water at a 1:1 volumetric ratio. The prepared mud was dispensed in 365 mL aliquots into 16-ounce (oz.) non-perforated plastic pots with a surface area of 86.59 square centimeters (cm^2) leaving a headspace of 3 centimeters (cm) in each pot. Rice seeds were planted in Sun Gro MetroMix® 306 planting mixture, which typically has a pH of 6.0 to 6.8 and an organic matter content of about 30 percent, in plastic plug trays. Seedlings at the second or third leaf stage of growth were transplanted into 860 mL of mud contained in 32-oz. non-perforated plastic pots with a surface area of 86.59 cm^2 4 days prior to herbicide application. The paddy was created by filling the headspace of the pots with 2.5 to 3 cm of water. When required to ensure good germination and healthy plants, a fungicide treatment and/or other chemical or physical treatment was applied. The plants were grown for 4-22 days in a greenhouse with an approximate 14 h photoperiod which was maintained at about 29° C. during the day and about 26° C. during the night. Nutrients were added as Osmocote® (17:6:10, N:P:K+minor nutrients) at 2 grams (g) per 16-oz. pot and 4 g per 32-oz. pot. Water was added on a regular basis to maintain the paddy flood, and supplemental lighting was provided with overhead metal halide 1000-Watt lamps as necessary. The plants were employed for testing when they reached the first through fourth true leaf stage.
Treatments consisted of the acid or esters of 4-amino-3-chloro-5-fluoro-6-(4-chloro-2-fluoro-3-methoxy-phenyl)pyridine-2-carboxylic acid (compound A) each formulated as an SC (suspension concentrate) and various herbicidal components alone and in combination. Forms of compound A were applied on an acid equivalent basis.
Other […] components were applied on an active ingredient basis and consisted of etofenprox (technical grade material) and sulfoxaflor formulated as Sulfoxaflor WG.
Treatment requirements for each compound or herbicidal component were calculated based upon the rates being tested, the concentration of active ingredient or acid equivalent in the formulation, an application volume of 2 mL per component per pot, and an application area of 86.59 cm^2 per pot.
For formulated compounds, a measured amount was placed in an individual 100 or 200 mL glass vial and was dissolved in a volume of 1.25% (v/v) AgriDex® crop oil concentrate to obtain application solutions.
For technical grade compounds, a weighed amount was placed in an individual 100 to 200 mL glass vial and was dissolved in a volume of acetone to obtain concentrated stock solutions.
Applications were made by injecting with a pipetter appropriate amounts of the application solutions, individually and sequentially, into the aqueous layer of the paddy. Control plants were treated in the same manner with the solvent blank. Applications were made so that all treated plant material received the same concentrations of acetone and crop oil concentrate.
(§1) The treated plants and control plants were placed in a greenhouse as described above and water was added as needed to maintain a paddy flood. After approximately 3 weeks the condition of the test plants as compared with that of the untreated plants was determined visually and scored on a scale of 0 to 100 percent where 0 corresponds to no injury or growth inhibition and 100 corresponds to complete kill.
Colby's equation was used to determine the herbicidal effects expected from the mixtures (Colby, S. R. Calculation of the synergistic and antagonistic response of herbicide combinations. Weeds 1967, 15, 20-22.). […]

CYPIR = type: in vivo, Cyperus iria
Source text: Seeds or nutlets of the desired test plant species were planted in a soil matrix prepared by mixing a loam or sandy loam soil (e.g., 28.6 percent silt, 18.8 percent clay, and 52.6 percent sand, with a pH of about 5.8 and an organic matter content of about 1.8 percent) and calcareous grit in an 80 to 20 ratio. The soil matrix was contained in plastic pots with a volume of 1 quart and a surface area of 83.6 square centimeters (cm^2). When required to ensure good germination and healthy plants, a fungicide treatment and/or other chemical or physical treatment was applied. The plants were grown for 8-22 days in a greenhouse with an approximate 14 hour (h) photoperiod which was maintained at about 29° C. during the day and 26° C. during the night. Nutrients (Peters Excel® 15-5-15 5-Ca 2-Mg and iron chelate) were applied in the irrigation solution as needed and water was added on a regular basis. Supplemental lighting was provided with overhead metal halide 1000-Watt lamps as necessary. The plants were employed for testing when they reached the first through fourth true leaf stage.
Treatments consisted of the acid or esters of 4-amino-3-chloro-6-(4-chloro-2-fluoro-3-methoxyphenyl)-5-fluoropyridine-2-carboxylic acid (Compound A), each formulated as an SC (suspension concentrate), and various insecticidal components alone and in combination. Forms of compound A were applied on an acid equivalent basis.
Treatment requirements were calculated based upon the rates being tested, the concentration of active ingredient or acid equivalent in the formulation, and a 12 milliliter (mL) application volume at a rate of 187 liters per hectare (L/ha).
For treatments comprised of formulated compounds, measured amounts of compounds were placed individually in 25 mL glass vials and diluted in a volume of 1.25% volume per volume (v/v) Agri-Dex® crop oil concentrate to obtain 12× stock solutions. […] Application solutions were prepared by adding an appropriate amount of each stock solution (e.g., 1 mL) and diluted to the appropriate final concentrations with the addition of […] of an aqueous mixture of 1.25% (v/v) crop oil concentrate so that the final spray solutions contained 1.25+/−0.05% (v/v) crop oil concentrate.
As required, additional water and/or 97:3 v/v acetone/DMSO was added to individual application solutions so that the final acetone and DMSO concentrations of the application solutions being compared were 8.1% and 0.25%, respectively.
All stock solutions and applications solutions were visually inspected for compound compatibility prior to application. Spray solutions were applied to the plant material with an overhead Mandel track sprayer equipped with 8002E nozzles calibrated to deliver 187 L/ha over an application area of 0.503 square meters (m^2) at a spray height of 18 to 20 inches (46 to 50 cm) above average plant canopy height. Control plants were sprayed in the same manner with the solvent blank.
as §1, with “watered by sub-irrigation” for “water was added as needed”, “prevent wash-off of the test compounds.” for “maintain a paddy flood.”, “weeks,” for “weeks”, “to” for “with”
Colby's equation was used to determine the herbicidal effects expected from the mixtures (Colby, S. R. Calculation of the synergistic and antagonistic response of herbicide combinations. Weeds 1967, 15, 20-22.).
The following equation was used to calculate the expected activity of mixtures containing two active ingredients, A and B: Expected=A+B−(A×B/100)

With `COc1c(Cl)ccc(-c2nc(C(=O)O)c(Cl)c(N)c2F)c1F` [Compound A Acid, 4-amino-3-chloro-6-(4-chloro-2-fluoro-3-methoxyphenyl)-5-fluoropyridine-2-carboxylic acid] the “Visual Weed Control (%) - 21 DAA SCPMA Obs” value (SCPMA; 4.38 g ae/ha alone) was 0%, the “Visual Weed Control (%) - 21 DAA SCPMA Obs” value (SCPMA; 8.75 g ae/ha alone) was 0% and the “Visual Weed Control (%) - 20 DAA CYPIR Obs” value (CYPIR; 4.38 g ae/ha alone) was 30%.

With `COc1c(Cl)ccc(-c2nc(C(=O)OCc3ccccc3)c(Cl)c(N)c2F)c1F` [Compound A Benzyl Ester] the “Visual Weed Control (%) - 21 DAA SCPMA Obs” value (SCPMA; 21 DAA, 4.38 g ae/ha alone) was 0%, the “Visual Weed Control (%) - 21 DAA SCPMA Obs” value (SCPMA; 21 DAA, 8.75 g ae/ha alone) was 0% and the “Visual Weed Control (%) - 21 DAA SCPMA Obs” value (SCPMA; 21 DAA, 17.5 g ae/ha alone) was 0%. For the same compound, the “Visual Weed Control (%) - 22 DAA CYPIR Obs” value (CYPIR; 4.38 g ae/ha alone) was 70%, the “Visual Weed Control (%) - 21 DAA CYPIR Obs” value (CYPIR; 8 g ae/ha alone) was 50% and the “Visual Weed Control (%) - 21 DAA CYPIR Obs” value (CYPIR; 21 DAA, 8 g ae/ha alone) was 50%.

With `CC(c1ccc(C(F)(F)F)nc1)S(C)(=O)=NC#N` (stereo not shown) [Sulfoxaflor, N-[methyloxido[1-[6-(trifluoromethyl)-3-pyridinyl]ethyl]-λ^4-sulfanylidene]cyanamide] the “Visual Weed Control (%) - 21 DAA SCPMA Obs” value (SCPMA; 21 DAA, 50 g ai/ha alone) was 0%, the “Visual Weed Control (%) - 21 DAA SCPMA Obs” value (SCPMA; 50 g ai/ha alone) was 0% and the “Visual Weed Control (%) - 21 DAA CYPIR Obs” value (CYPIR; 21 DAA, 75 g ai/ha alone) was 0%. The “Visual Weed Control (%) - 21 DAA CYPIR Obs” value (CYPIR; 21 DAA, 150 g ai/ha alone) was 0%.
